Experiments:
ABUTH (Velvetleaf) [1] = test: Postemergence herbicidal evaluation; type: in vivo, Abutilon theophrasti; details: postemergence
Outline: (§1)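 Each compound, dispersed in an acetone/water mix (50/50) carrying 0.5% TWEEN 20, is nozzle-sprayed at 40 psi on approximately two-week-old seedlings at about 0.0156–0.500 kg/ha. Plants are assessed 4–5 weeks afterward on a 0–9 scale relative to control; duplicate tests are averaged.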

[2] = system: IPOHE (Morningglory, Ivyleaf); test: Postemergence herbicidal evaluation; type: in vivo, Ipomoea hederacea; details: postemergence
Outline: as §1

SETVI (Foxtail, Green) = test: Postemergence herbicidal evaluation; type: in vivo, Setaria viridis; details: postemergence
Outline: as §1

[3] = system: GLXMAW (Soybean, Williams); test: Postemergence herbicidal evaluation; type: in vivo, Glycine max, (L.) Merr. cv Williams; details: postemergence
Outline: as §1

ZEAMX (Corn, Field) = test: Postemergence herbicidal evaluation; type: in vivo, Zea mays; details: postemergence
Outline: as §1

ABUTH (Velvetleaf) [4] = test: Preemergence herbicidal evaluation; type: in vivo, Abutilon theophrasti; details: rated 4-5 weeks after treatment
Outline: (§2)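 Seeds were mixed with potting soil and planted on about one inch of soil, then sprayed with test compound in aqueous acetone at about 0.0156 to 0.500 kg per hectare. Plants grew under standard greenhouse care and were visually rated 0-9 against untreated controls 4-5 weeks post-treatment.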

AMBEL (Ragweed, Common) = test: Preemergence herbicidal evaluation; type: in vivo, Ambrosia artemisifolia; details: rated 4-5 weeks after treatment
Outline: as §2

CASOB (Sicklepod) = test: Preemergence herbicidal evaluation; type: in vivo, Cassia obtusifolia; details: rated 4-5 weeks after treatment
Outline: as §2

[5] = system: IPOHE (Morningglory, Ivyleaf); test: Preemergence herbicidal evaluation; type: in vivo, Ipomoea hederacea; details: rated 4-5 weeks after treatment
Outline: as §2

ECHCG (Barnyardgrass) = test: Preemergence herbicidal evaluation; type: in vivo, Echinochloa crus-galli; details: rated 4-5 weeks after treatment
Outline: as §2

[6] = system: ECHORC (Watergrass (Calif.)); test: Preemergence weed control under flooded paddy conditions; type: in vivo, Echinochloa oryzoides; details: rated 3-4 weeks after treatment
Outline: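 Seeds or propagules sown in silt loam kept flooded 1.5-3 cm; compounds in 50/50 acetone/water pipetted into flood water at about 0.0313 to 0.500 kg/ha. Greenhouse; visual 0-9 rating versus untreated control 3-4 weeks after treatment.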

CYPSE (Flatsedge) = test: as above; type: in vivo, Cyperus serotinus; details: rated 3-4 weeks after treatment
Outline: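 Using flooded silt loam (water 1.5 to 3 cm deep), seeds sown in the top 0.5 cm were exposed preemergence to compound pipetted into the flood at about 0.0313 to 0.500 kg/ha. Effects were scored 0-9 by eye three to four weeks later.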

[7] = rate 0.0156 kg/ha, rating scale 0-9
[8] = rate 0.0313 kg/ha, rating scale 0-9
[9] = rate 0.0625 kg/ha, rating scale 0-9
[10] = rate 0.1250 kg/ha, rating scale 0-9
[11] = rate 0.2500 kg/ha, rating scale 0-9

With `CCOC(=O)CN1C(=O)C(Cl)SC1=Nc1cc(-n2c(=O)cc(C(F)(F)F)n(C)c2=O)c(F)cc1Cl` (stereo not shown) [Compound 126, Ethyl 5-chloro-2-{{2-chloro-5-[3,6-dihydro-3-methyl-2,6-dioxo-4-(trifluoromethyl)-1(2H)-pyrimidinyl]-4-fluorophenyl}imino}-4-oxo-3-thiazolidineacetate] the “herbicidal rating ABUTH” value (ABUTH (Velvetleaf) [1]; rate 0.0156 kg/ha) was 5.0, the “herbicidal rating ABUTH” value (ABUTH (Velvetleaf) [1]; rate 0.0313 kg/ha) was 9.0 and the “herbicidal rating ABUTH” value (ABUTH (Velvetleaf) [1]; rate 0.0625 kg/ha) was 9.0. For the same compound, the “herbicidal rating ABUTH” value (ABUTH (Velvetleaf) [1]; rate 0.1250 kg/ha) was 9.0, the “herbicidal rating IPOHE” value ([2]; rate 0.0156 kg/ha) was 9.0 and the “herbicidal rating IPOHE” value ([2]; rate 0.0313 kg/ha) was 9.0. The “herbicidal rating IPOHE” value ([2]; rate 0.0625 kg/ha) was 9.0, the “herbicidal rating IPOHE” value ([2]; rate 0.1250 kg/ha) was 9.0 and the “herbicidal rating SETVI” value (SETVI (Foxtail, Green); rate 0.0156 kg/ha) was 0.0. For the same compound, the “herbicidal rating SETVI” value (SETVI (Foxtail, Green); rate 0.0313 kg/ha) was 3.0, the “herbicidal rating SETVI” value (SETVI (Foxtail, Green); rate 0.0625 kg/ha) was 3.0 and the “herbicidal rating SETVI” value (SETVI (Foxtail, Green); rate 0.1250 kg/ha) was 9.0. The “herbicidal rating GLXMAW” value ([3]; rate 0.0156 kg/ha) was 5.0, the “herbicidal rating GLXMAW” value ([3]; rate 0.0313 kg/ha) was 5.5 and the “herbicidal rating GLXMAW” value ([3]; rate 0.0625 kg/ha) was 6.0. The “herbicidal rating GLXMAW” value ([3]; rate 0.1250 kg/ha) was 7.0, the “herbicidal rating ZEAMX” value (ZEAMX (Corn, Field); rate 0.0156 kg/ha) was 4.0 and the “herbicidal rating ZEAMX” value (ZEAMX (Corn, Field); rate 0.0313 kg/ha) was 4.0. The “herbicidal rating ZEAMX” value (ZEAMX (Corn, Field); rate 0.0625 kg/ha) was 4.5, the “herbicidal rating ZEAMX” value (ZEAMX (Corn, Field); rate 0.1250 kg/ha) was 6.5 and the “Preemergence herbicidal rating ABUTH” value (ABUTH (Velvetleaf) [4]; rate 0.0625 kg/ha) was 5.0. The “Preemergence herbicidal rating ABUTH” value (ABUTH (Velvetleaf) [4]; rate 0.1250 kg/ha) was 5.0, the “Preemergence herbicidal rating ABUTH” value (ABUTH (Velvetleaf) [4]; rate 0.2500 kg/ha) was 9.0 and the “Preemergence herbicidal rating ABUTH” value (ABUTH (Velvetleaf) [4]; rate 0.5000 kg/ha) was 9.0. The “Preemergence herbicidal rating AMBEL” value (AMBEL (Ragweed, Common); rate 0.0625 kg/ha) was 0.0, the “Preemergence herbicidal rating AMBEL” value (AMBEL (Ragweed, Common); rate 0.1250 kg/ha) was 0.0 and the “Preemergence herbicidal rating AMBEL” value (AMBEL (Ragweed, Common); rate 0.2500 kg/ha) was 4.0. The “Preemergence herbicidal rating AMBEL” value (AMBEL (Ragweed, Common); rate 0.5000 kg/ha) was 5.0, the “Preemergence herbicidal rating CASOB” value (CASOB (Sicklepod); rate 0.0625 kg/ha) was 0.0 and the “Preemergence herbicidal rating CASOB” value (CASOB (Sicklepod); rate 0.1250 kg/ha) was 0.0. For the same compound, the “Preemergence herbicidal rating CASOB” value (CASOB (Sicklepod); rate 0.2500 kg/ha) was 0.0, the “Preemergence herbicidal rating CASOB” value (CASOB (Sicklepod); rate 0.5000 kg/ha) was 3.0 and the “Preemergence herbicidal rating IPOHE” value ([5]; rate 0.0625 kg/ha) was 0.0. The “Preemergence herbicidal rating IPOHE” value ([5]; rate 0.1250 kg/ha) was 1.0, the “Preemergence herbicidal rating IPOHE” value ([5]; rate 0.2500 kg/ha) was 1.0 and the “Preemergence herbicidal rating IPOHE” value ([5]; rate 0.5000 kg/ha) was 9.0. For the same compound, the “Preemergence herbicidal rating ECHCG” value (ECHCG (Barnyardgrass); rate 0.0625 kg/ha) was 0.0, the “Preemergence herbicidal rating ECHCG” value (ECHCG (Barnyardgrass); rate 0.1250 kg/ha) was 0.0 and the “Preemergence herbicidal rating ECHCG” value (ECHCG (Barnyardgrass); rate 0.2500 kg/ha) was 0.0. The “Preemergence herbicidal rating ECHCG” value (ECHCG (Barnyardgrass); rate 0.5000 kg/ha) was 2.0, the “herbicidal effect rating, ECHORC” value ([6]; 0.0313 kg/ha) was 0.0 and the “herbicidal effect rating, ECHORC” value ([6]; 0.0625 kg/ha) was 3.0. The “herbicidal effect rating, ECHORC” value ([6]; 0.1250 kg/ha) was 6.0, the “herbicidal effect rating, ECHORC” value ([6]; 0.2500 kg/ha) was 7.0 and the “herbicidal effect rating, CYPSE” value (CYPSE (Flatsedge); 0.0313 kg/ha) was 0.0. For the same compound, the “herbicidal effect rating, CYPSE” value (CYPSE (Flatsedge); 0.0625 kg/ha) was 0.0, the “herbicidal effect rating, CYPSE” value (CYPSE (Flatsedge); 0.1250 kg/ha) was 0.0 and the “herbicidal effect rating, CYPSE” value (CYPSE (Flatsedge); 0.2500 kg/ha) was 0.0.

For `Cn1c(C(F)(F)F)cc(=O)n(-c2cc(N=C3SCC(=O)N3Cc3ccc(S(N)(=O)=O)cc3)c(Cl)cc2F)c1=O` [Compound 135, Alpha-{2-{{2-chloro-5-[3,6-dihydro-3-methyl-2,6-dioxo-4-(trifluoromethyl)-1(2H)-pyrimidinyl]-4-fluorophenyl}imino}-4-oxo-3-thiazolidinyl}-p-toluenesulfonamide], the “herbicidal rating ABUTH” value (ABUTH (Velvetleaf) [1]; rate 0.0156 kg/ha) was 4.0, the “herbicidal rating ABUTH” value (ABUTH (Velvetleaf) [1]; rate 0.0313 kg/ha) was 9.0 and the “herbicidal rating ABUTH” value (ABUTH (Velvetleaf) [1]; rate 0.0625 kg/ha) was 9.0. The “herbicidal rating IPOHE” value ([2]; rate 0.0156 kg/ha) was 9.0, the “herbicidal rating IPOHE” value ([2]; rate 0.0313 kg/ha) was 9.0 and the “herbicidal rating IPOHE” value ([2]; rate 0.0625 kg/ha) was 9.0. The “herbicidal rating SETVI” value (SETVI (Foxtail, Green); rate 0.0156 kg/ha) was 2.0, the “herbicidal rating SETVI” value (SETVI (Foxtail, Green); rate 0.0313 kg/ha) was 4.0 and the “herbicidal rating SETVI” value (SETVI (Foxtail, Green); rate 0.0625 kg/ha) was 6.0. For the same compound, the “herbicidal rating GLXMAW” value ([3]; rate 0.0156 kg/ha) was 5.0, the “herbicidal rating GLXMAW” value ([3]; rate 0.0313 kg/ha) was 5.0 and the “herbicidal rating GLXMAW” value ([3]; rate 0.0625 kg/ha) was 5.0. For the same compound, the “herbicidal rating ZEAMX” value (ZEAMX (Corn, Field); rate 0.0156 kg/ha) was 3.5, the “herbicidal rating ZEAMX” value (ZEAMX (Corn, Field); rate 0.0313 kg/ha) was 4.0 and the “herbicidal rating ZEAMX” value (ZEAMX (Corn, Field); rate 0.0625 kg/ha) was 4.0. The “Preemergence herbicidal rating ABUTH” value (ABUTH (Velvetleaf) [4]; [7]) was 0.0, the “Preemergence herbicidal rating ABUTH” value (ABUTH (Velvetleaf) [4]; [8]) was 0.0 and the “Preemergence herbicidal rating ABUTH” value (ABUTH (Velvetleaf) [4]; [9]) was 3.0. For the same compound, the “Preemergence herbicidal rating ABUTH” value (ABUTH (Velvetleaf) [4]; [10]) was 6.0, the “Preemergence herbicidal rating ABUTH” value (ABUTH (Velvetleaf) [4]; [11]) was 8.0 and the “Preemergence herbicidal rating AMBEL” value (AMBEL (Ragweed, Common); [7]) was 0.0. For the same compound, the “Preemergence herbicidal rating AMBEL” value (AMBEL (Ragweed, Common); [8]) was 0.0, the “Preemergence herbicidal rating AMBEL” value (AMBEL (Ragweed, Common); [9]) was 0.0 and the “Preemergence herbicidal rating AMBEL” value (AMBEL (Ragweed, Common); [10]) was 4.0. For the same compound, the “Preemergence herbicidal rating AMBEL” value (AMBEL (Ragweed, Common); [11]) was 7.0, the “Preemergence herbicidal rating CASOB” value (CASOB (Sicklepod); [7]) was 0.0 and the “Preemergence herbicidal rating CASOB” value (CASOB (Sicklepod); [8]) was 1.0. For the same compound, the “Preemergence herbicidal rating CASOB” value (CASOB (Sicklepod); [9]) was 1.0, the “Preemergence herbicidal rating CASOB” value (CASOB (Sicklepod); [10]) was 1.0 and the “Preemergence herbicidal rating CASOB” value (CASOB (Sicklepod); [11]) was 5.0. The “Preemergence herbicidal rating IPOHE” value [5, 7] was 0.0, the “Preemergence herbicidal rating IPOHE” value [5, 8] was 0.0 and the “Preemergence herbicidal rating IPOHE” value [5, 9] was 1.0. For the same compound, the “Preemergence herbicidal rating IPOHE” value [5, 10] was 9.0, the “Preemergence herbicidal rating IPOHE” value [5, 11] was 9.0 and the “Preemergence herbicidal rating ECHCG” value (ECHCG (Barnyardgrass); [7]) was 0.0. The “Preemergence herbicidal rating ECHCG” value (ECHCG (Barnyardgrass); [8]) was 0.0, the “Preemergence herbicidal rating ECHCG” value (ECHCG (Barnyardgrass); [9]) was 0.0 and the “Preemergence herbicidal rating ECHCG” value (ECHCG (Barnyardgrass); [10]) was 0.0. For the same compound, the “Preemergence herbicidal rating ECHCG” value (ECHCG (Barnyardgrass); [11]) was 1.0, the “herbicidal effect rating, ECHORC” value ([6]; 0.0313 kg/ha) was 7.0 and the “herbicidal effect rating, ECHORC” value ([6]; 0.0625 kg/ha) was 7.0. The “herbicidal effect rating, ECHORC” value ([6]; 0.1250 kg/ha) was 7.0, the “herbicidal effect rating, ECHORC” value ([6]; 0.2500 kg/ha) was 9.0 and the “herbicidal effect rating, CYPSE” value (CYPSE (Flatsedge); 0.1250 kg/ha) was 0.0. The “herbicidal effect rating, CYPSE” value (CYPSE (Flatsedge); 0.2500 kg/ha) was 0.0.
